The assay has as its system 57BL/6 mice. The assay is described as follows: Antibody titers (IgG1, IgG2) in mice given Mtb72F vaccine plus MPL adjuvant. The conditions noted are these: for antibody titer of IgG1 / antibody titer of IgG2: Mtb72F 10 μg injected, compared with no MPL administered.
[1] abbreviates: day 43, MPL administered iontophoretically (transcutaneous).
Setting [2] is: day 43, MPL by intracutaneous injection (MPL-AF or MPL-SE, 20 μg).

monophosphoryl lipid A [MPL]: the immune response-enhancing effects entry (MPL administered iontophoretically, compared with intracutaneous injection) is reported as “significant immune response-enhancing effects equivalent to those obtained by intracutaneous injection”. Also, the “antibody titer results, iontophoretic delivery compared with intracutaneous injection” value (day 43, IgG1 and IgG2) is reported as “nearly identical”. Further, the “antibody titer of IgG1” value reads like this: under setting [1], “significantly higher”; under setting [2], “significantly higher”. Also, the “antibody titer of IgG2” value is given as “significantly higher” under setting [1] and “significantly higher” under setting [2].

The values are drawn from patent US20060135906A1, “Iontophoretic device and method for administering immune response-enhancing agents and compositions” (priority 2004, published 2006).
